Experimental data: patent US11090285B2, “Treatment of circadian rhythm disorders” (Vanda Pharmaceuticals Inc., priority 2013, dated 2021)
Read-outs that look alike come from different tables or passages of the source.

Experiments:
[1] = Effect of smoking on pharmacokinetics of tasimelteon and metabolites; type: in vivo, human; set-up: AUC (inf) / AUC(0-inf): concentration or dose not given beside the values; details: for AUC (inf), Geometric Mean Ratio / Cmax, Geometric Mean Ratio / t½, Geometric Mean Ratio: Smokers vs Non-Smokers; for half-life: read-out: t½ (converted)
From the text: Smokers were defined as those smoking 10 or more cigarettes per day. Non-smokers were defined as those smoking no cigarettes per day.

[2] = Pharmacokinetics on co-administration of tasimelteon and fluvoxamine; type: in vivo, human; details: for AUC (inf), Geometric Mean Ratio / Cmax, Geometric Mean Ratio / t½, Geometric Mean Ratio: Day 8 vs Day 1; for half-life: read-out: t½ (converted)
Protocol: Twenty-four healthy male or female subjects between the ages of 18 and 55 years of age (inclusive) who were non-smokers with a body mass index (BMI) of ≥18 and ≤35 kg/m2 participated in this open-label, single-sequence study conducted at one site. On day 1, subjects were administered […] of tasimelteon.

[3] = in vivo; cited from earlier work
[4] = human, in vivo, Non-Smokers, read-out: Cmax
[5] = human, in vivo, Smokers (10 or more cigarettes per day), read-out: Cmax
[6] = human, in vivo, Smokers, read-out: Tmax
[7] = both sexes, human, in vivo, Day 1, 5.667 mg tasimelteon alone, read-out: Cmax
[8] = both sexes, human, in vivo, Day 1, 5.667 mg tasimelteon alone, read-out: Tmax
[9] = both sexes, human, in vivo, Day 1, 5.667 mg tasimelteon alone
[10] = Smokers (10 or more cigarettes per day)
[11] = Day 1, 5.667 mg tasimelteon alone
[12] = Day 8, 5.667 mg tasimelteon + 50 mg fluvoxamine

| SMILES | AUC (inf), Geometric Mean Ratio [1] [%] | Cmax, Geometric Mean Ratio [1] [%] | t½, Geometric Mean Ratio [1] [%] | AUC (inf), Geometric Mean Ratio [2] [%] | Cmax, Geometric Mean Ratio [2] [%] | t½, Geometric Mean Ratio [2] [%] | AUC (inf) ([1]; Non-Smokers) [ng·h/mL] | Cmax ([1]; Non-Smokers) [ng/mL] | Tmax ([1]; Non-Smokers) [h] | t½ ([1]; Non-Smokers) [h] | AUC (inf) ([1]; Smokers) [ng·h/mL] | Tmax ([1]; Smokers) [h] | t½ ([1]; Smokers) [h] | Cmax [1, 10] [ng/mL] | AUC (inf) [2, 11] [ng·h/mL] | Cmax [2, 11] [ng/mL] | Tmax [2, 11] [h] | t½ [2, 11] [h] | AUC (inf) [2, 12] [ng·h/mL] | Cmax [2, 12] [ng/mL] | other results |
| --- | --- | --- | --- | --- | --- | --- | --- | --- | --- | --- | --- | --- | --- | --- | --- | --- | --- | --- | --- | --- | --- |
| CCC(=O)NC[C@@H]1C[C@H]1c1cccc(O)c1CC(=O)O [M9] | 74.36 | 77.18 | 85.40 | 122.56 | 64.94 | 328.02 | – | – | – | – | – | – | – | – | – | – | – | – | – | – | AUC(0-inf) ([1]; human, in vivo, Non-Smokers): 406 ± 75 ng·h/mL; Cmax [1, 4]: 279 ± 82.8 ng/mL; half-life ([1]; human, in vivo, Non-Smokers): 1.38 ± 0.45 h; AUC(0-inf) ([1]; human, in vivo, Smokers): 315 ± 112 ng·h/mL; Cmax [1, 5]: 230 ± 118 ng/mL; Tmax [1, 6]: 0.75 h; half-life ([1]; human, in vivo, Smokers): 1.15 ± 0.17 h; Cmax [2, 7]: 67.6 ± 19.1 ng/mL; Tmax [2, 8]: 0.5 h; half-life [2, 9]: 1.14 ± 0.29 h |
| CCC(=O)NC[C@@H]1C[C@H]1c1cccc(O)c1CCO [M11] | 81.84 | 84.50 | 94.13 | 126.03 | 68.71 | 248.35 | – | – | – | – | – | – | – | – | – | – | – | – | – | – | AUC(0-inf) ([1]; human, in vivo, Non-Smokers): 154 ± 58 ng·h/mL; Cmax [1, 4]: 54.9 ± 15.1 ng/mL; half-life ([1]; human, in vivo, Non-Smokers): 2.14 ± 0.94 h; AUC(0-inf) ([1]; human, in vivo, Smokers): 124 ± 42 ng·h/mL; Cmax [1, 5]: 46.2 ± 11.9 ng/mL; Tmax [1, 6]: 1 h; half-life ([1]; human, in vivo, Smokers): 1.99 ± 0.85 h; Cmax [2, 7]: 15.8 ± 5.4 ng/mL; Tmax [2, 8]: 1 h; half-life [2, 9]: 1.61 ± 0.55 h |
| CCC(=O)NCC1CC1c1cccc2c1C(O)CO2 (stereo not drawn) [M12] | 84.87 | 115.53 | 73.31 | 274.81 | 92.74 | 241.02 | 679 ± 433 | 108 ± 29 | 1.00 | 3.05 ± 1.73 | 526 ± 193 | 1.00 | 2.11 ± 0.67 | 123 ± 28 | 189 ± 90.8 | 31.0 ± 7.23 | 0.88 | 3.03 ± 1.02 | 435 ± 109.3 | 30.8 ± 17.6 | Tmax [2, 12]: 3.00 h; t½ [2, 12]: 7.03 ± 3.27 h |
| CCC(=O)NC[C@@H]1C[C@H]1c1cccc2c1CC(O)O2 (stereo partly drawn) [M13] | 97.31 | 99.49 | 77.51 | 125.05 | 69.31 | 349.81 | 337 ± 94 | 270 ± 71 | 0.50 | 1.18 ± 0.50 | 329 ± 99 | 0.75 | 0.89 ± 0.26 | 272 ± 86 | 106 ± 32.6 | 87.5 ± 24.4 | 0.50 | 1.00 ± 0.30 | 133 ± 32.9 | 63.6 ± 24.6 | Tmax [2, 12]: 0.50 h; t½ [2, 12]: 3.51 ± 1.18 h |
| CCC(=O)NCC1CC1c1cccc2c1C(O)CO2 (stereo not drawn) [M14] | 42.98 | 60.17 | 65.09 | 944.73 | 264.58 | 243.34 | 22.0 ± 24.2 | 6.18 ± 3.15 | 0.75 | 1.84 ± 1.22 | 9.45 ± 11.88 | 0.75 | 1.13 ± 0.54 | 3.72 ± 1.86 | 4.54 ± 2.39 | 1.20 ± 0.40 | 0.75 | 2.18 ± 0.97 | 42.6 ± 27.3 | 3.20 ± 1.49 | Tmax [2, 12]: 4.00 h; t½ [2, 12]: 4.98 ± 1.89 h |
| COc1ccc2[nH]cc(CCNC(C)=O)c2c1 [Melatonin] | – | – | – | – | – | – | – | – | – | – | – | – | – | – | – | – | – | – | – | – | Tmax [3]: ≥ 2 h |
